# Test results taken from patent publication US8648105B2, “Diarylthiohydantoin compounds” (The Regents of the University of California, priority 2006, dated 2014).
# Where a chain is given by its changes, count along the chain named.
# Key:
# MCF7 = assay: Growth effect on MCF7 cells; type: cell-based; details: MCF7 breast cancer cells
# DU-145 cells = assay: MTS growth assay in DU-145 cells; type: cell-based; details: DU-145, lacks AR expression
# SkBr3 = assay: Growth effect on SkBr3 cells; type: cell-based; details: SkBr3 breast cancer cells
# 3T3 = assay: Growth effect on 3T3 cells; type: cell-based; details: 3T3 normal mouse fibroblast cell line
# AR [1] = target: T1, AR (Homo sapiens, UniProt P10275); type: cell-based; design: Fold induction, AR response reporter; details: AR over expressed LNCaP, absence of R1881
# T1 sequence (P10275 1-920): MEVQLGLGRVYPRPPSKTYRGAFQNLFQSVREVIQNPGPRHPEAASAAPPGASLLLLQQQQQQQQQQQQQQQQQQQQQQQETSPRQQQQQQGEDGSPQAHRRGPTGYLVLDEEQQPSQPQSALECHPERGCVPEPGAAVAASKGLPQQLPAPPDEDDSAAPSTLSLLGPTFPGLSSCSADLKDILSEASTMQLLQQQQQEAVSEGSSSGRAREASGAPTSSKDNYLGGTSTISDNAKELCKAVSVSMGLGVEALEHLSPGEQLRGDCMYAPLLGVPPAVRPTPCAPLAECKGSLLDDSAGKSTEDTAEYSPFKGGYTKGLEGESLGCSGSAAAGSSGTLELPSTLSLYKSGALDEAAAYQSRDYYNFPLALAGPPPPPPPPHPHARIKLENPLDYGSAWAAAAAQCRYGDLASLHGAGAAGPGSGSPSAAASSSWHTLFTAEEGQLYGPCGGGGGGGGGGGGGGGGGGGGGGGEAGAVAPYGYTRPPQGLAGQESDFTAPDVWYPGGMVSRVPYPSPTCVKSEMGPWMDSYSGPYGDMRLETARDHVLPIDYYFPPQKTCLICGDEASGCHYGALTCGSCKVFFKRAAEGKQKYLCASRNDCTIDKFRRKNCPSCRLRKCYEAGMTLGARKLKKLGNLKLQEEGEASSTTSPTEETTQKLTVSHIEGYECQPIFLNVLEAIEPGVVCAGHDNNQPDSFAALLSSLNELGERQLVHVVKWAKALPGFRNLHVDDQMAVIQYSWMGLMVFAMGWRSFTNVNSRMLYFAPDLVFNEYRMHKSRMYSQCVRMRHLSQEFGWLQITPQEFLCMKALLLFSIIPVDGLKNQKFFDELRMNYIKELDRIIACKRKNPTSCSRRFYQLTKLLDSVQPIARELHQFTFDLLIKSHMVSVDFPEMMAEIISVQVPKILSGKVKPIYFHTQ
# AR [2] = target: T1, AR; type: cell-based; design: Fold induction, AR response reporter; details: for rank by relative PSA level, most active to least active: 500 nM; for decrease in PSA level of LNCaP-AR cells (comparison): 1000 nM
# Procedure: It is well established that PSA levels are indicators of AR activities in prostate cancer. […] The LNCaP-AR cells are a line of lymph node carcinoma of prostate cells transduced with a plasmid that makes express androgen receptors. […] After four days incubation, secreted PSA levels were assayed using PSA ELISA kits (American Qualex, San Clemente, Calif.)
# [3] = target: T2, glucocorticoid receptor (GR) (Homo sapiens, UniProt P04150); assay: GR response reporter in LNCaP cells over expressing glucocorticoid receptor; type: cell-based
# T2 construct: expressed in transfected cells; host or cells: LNCaP cells
# T2 sequence (P04150 1-777): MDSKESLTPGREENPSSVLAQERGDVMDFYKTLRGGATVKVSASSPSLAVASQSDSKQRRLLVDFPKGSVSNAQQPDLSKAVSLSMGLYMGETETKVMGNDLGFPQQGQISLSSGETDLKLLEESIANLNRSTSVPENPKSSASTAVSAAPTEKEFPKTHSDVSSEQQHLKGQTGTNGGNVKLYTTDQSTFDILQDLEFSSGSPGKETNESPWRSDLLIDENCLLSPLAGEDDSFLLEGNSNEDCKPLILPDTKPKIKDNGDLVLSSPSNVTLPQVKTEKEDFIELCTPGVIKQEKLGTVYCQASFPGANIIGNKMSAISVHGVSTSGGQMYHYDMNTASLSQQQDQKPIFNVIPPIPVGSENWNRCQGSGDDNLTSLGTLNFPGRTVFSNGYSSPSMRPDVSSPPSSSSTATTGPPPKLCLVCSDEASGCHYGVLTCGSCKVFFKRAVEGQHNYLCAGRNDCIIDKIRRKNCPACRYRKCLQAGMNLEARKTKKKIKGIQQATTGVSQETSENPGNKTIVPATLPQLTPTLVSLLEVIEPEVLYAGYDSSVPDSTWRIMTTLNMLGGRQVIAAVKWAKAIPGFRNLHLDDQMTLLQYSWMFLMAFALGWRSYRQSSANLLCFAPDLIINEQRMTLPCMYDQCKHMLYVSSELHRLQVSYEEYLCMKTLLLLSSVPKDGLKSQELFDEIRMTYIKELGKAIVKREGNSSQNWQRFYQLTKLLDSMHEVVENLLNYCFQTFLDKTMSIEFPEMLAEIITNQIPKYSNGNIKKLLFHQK
# AR [4] = target: T1, AR; type: cell-based; design: Fold induction, AR response reporter; details: LN-AR, absence of R1881
# Procedure: Activities of AR response reporter were measured.
# [5] = Pharmacokinetics, drug concentration in mouse serum/plasma by HPLC; details: in vivo
# Procedure: Mice were divided into groups of three for each time points. Two mice were not treated with drug and two other mice were treated with vehicle solution. Each group was treated with 10 mg per kilogram of body weight.
# The drug was dissolved in a mixture 1:5:14 of DMSO:PEG400: H20. (Vehicle solution) and was administered into mice through the tail vein. The animals are warmed under a heat lamp for approximately 20 minutes prior to treatment to dilate their tail vein. […] After drug administration, the animals were euthanized via CO2 inhalation at different timepoints: 5 nm, 30 nm, 2 h, 6 h, 16 h. Animals were immediately bleed after exposure to CO2 via cardiac puncture (1 ml BD syringe+27 G ⅝ needle).
# The samples for HPLC analysis were prepared according to the following procedure:
# Blood cells were separated from serum by centrifugation.
# To 400 μl of serum were added 80 μl of a 10 μM solution of an internal standard and 520 μl of acetonitrile. Precipitation occurred.
# The mixture was vortexed for 3 minutes and then placed under ultrasound for 30 minutes.
# The solid particles were filtered off or were separated by centrifugation.
# The filtrate was dried under an argon flow to dryness.
# AR [6] = type: cell-based; details: FIG. 24
# Procedure: (§1) The compounds were subjected to tests using an artificial AR response reporter system in a hormone refractory prostate cancer cell line. […] After two days of incubation, reporter activities were assayed.
# AR [7] = target: T1, AR; type: cell-based; design: Fold induction, AR response reporter; details: for inhibitory activity on AR response reporter: hormone refractory LNCaP-AR
# Procedure: as §1
# [8] = Ranking of compounds in tiers for utility in treating prostate cancer
# Description: The placement of compounds into tiers was based on available data coupled with analytical judgment. Data considered included in vitro assays (AR response reporter system in LNCaP cell line, PSA level measurement, MTS mitochondrial assay) and in vivo experiments (tumor size measured directly or by emission induced by luciferase reporter gene, pharmacokinetic assays based on blood plasma levels). Not every compound was subjected to each assay. Not all data that was generated is shown. Judgment was applied in ranking compounds relative to each other for their utility in treating prostate cancer, in particular when ranking two compounds for which the same experiments were not performed.
# LogP = type: physicochemical
# LIAR cell line = assay: Luciferase activity of the LIAR cell line (FIG. 25); type: cell-based; details: 125 nmol to 1000 nmol
# Description: FIG. 25 is a graph of luciferase activity of the LIAR cell line dosed with various compounds administered at concentrations ranging from 125 nmol to 1000 nmol.
# The inventors have determined that what might appear to be a small change in the structure of hydantoin compounds may result in a large change in that compound's performance in treating prostate cancer.
# androgen receptor = target: T3, androgen receptor (Homo sapiens, UniProt P10275, T878A); details: 10 uM (R1881 1 nM), LNCaP
# T3 sequence (P10275 1-920 T878A): T1 sequence (P10275 1-920) with T878A
structure (smiles),measurement,setting,value
"Cc1ccc(N2C(=S)N(c3ccc(C#N)c(C(F)(F)F)c3)C(=O)C2(C)C)cc1 [NC2, 4-[3-(4-methylphenyl)-4,4-dimethyl-5-oxo-2-thioxoimidazolidin-1-yl]-2-trifluoromethyl-benzonitrile]",growth effect,MCF7,no growth effect
same,growth inhibitory effect,DU-145 cells,no growth inhibitory effect
same,growth effect,SkBr3,no growth effect
same,growth effect,3T3,no growth effect
"Cc1ccc(N2C(=S)N(c3ccc(C#N)c(C(F)(F)F)c3)C(=O)C23CCC3)cc1 [NC7, 4-(8-oxo-6-thioxo-5-(4-methylphenyl)-5,7-diazaspiro[3.4]oct-7-yl)-2-trifluoromethylbenzonitrile]",agonistic activity on secreted PSA,AR [1],no agonistic activities
same,growth effect,MCF7,no growth effect
same,"rank by relative PSA level, most active to least active",AR [2],NC50>NC48>NC7>NC43>NC44>NC49>NC50>NC45>bicalutamide
same,decrease in PSA level of LNCaP-AR cells (comparison),AR [2],"greater decrease in PSA level of LNCaP-AR cells than NC43, NC44, and NC50"
same,growth inhibitory effect,DU-145 cells,no growth inhibitory effect
same,growth effect,SkBr3,no growth effect
same,growth effect,3T3,no growth effect
same,effect on GR response reporter,[3],no effect on GR
same,agonistic activity on AR response reporter,AR [4],no agonistic activity
same,"pharmacokinetic behavior, residence time in blood",[5],metabolize fast
same,IC50 (comparison),AR [6],much lower than the IC50 for bicalutamide
"CN1C(=O)N(c2ccc(C#N)c(C(F)(F)F)c2)C(=O)C12CCC2 [NC25, 4-(5-methyl-6,8-dioxo-5,7-diazaspiro[3.4]oct-7-yl)-2-trifluoromethylbenzonitrile, reference compound]",agonistic activity on secreted PSA,AR [1],stimulated PSA expression
same,agonistic activity on AR response reporter,AR [4],strongly activated AR
same,inhibitory activity on AR response reporter,AR [7],no inhibitory activities
"CN1C(=S)N(c2ccc(C#N)c(C(F)(F)F)c2)C(=O)C12CCCC2 [NC26, 4-(1-methyl-4-oxo-2-thioxo-1,3-diazaspiro[4.4]non-3-yl)-2-trifluoromethylbenzonitrile, reference compound]",agonistic activity on secreted PSA,AR [1],stimulated PSA expression
same,agonistic activity on AR response reporter,AR [4],strongly activated AR
same,inhibitory activity on AR response reporter,AR [7],no inhibitory activities
"CNC(=O)CCCc1ccc(N2C(=S)N(c3ccc(C#N)c(C(F)(F)F)c3)C(=O)C23CCC3)cc1 [NC48, 4-{4-[7-(4-Cyano-3-trifluoromethylphenyl)-8-oxo-6-thioxo-5,7-diaza-spiro[3.4]oct-5-yl]-phenyl}-N-methyl-butyramide]","rank by relative PSA level, most active to least active",AR [2],NC50>NC48>NC7>NC43>NC44>NC49>NC50>NC45>bicalutamide
same,decrease in PSA level of LNCaP-AR cells (comparison),AR [2],"greater decrease in PSA level of LNCaP-AR cells than NC43, NC44, and NC50"
same,PSA levels,"AR [2]; LN-AR cells, FIG. 23",PSA levels decreased
same,PSA level (comparison),"AR [2]; LN/AR cell line, 125 nmol to 1000 nmol",less than the PSA level upon exposure to NC42 and NC46
same,activity remarks in the ranking,[8],particularly advantageous
same,logP,LogP,3.44
same,"pharmacokinetic behavior, residence time in blood",[5],metabolize fast
same,IC50 (comparison),AR [6],much lower than the IC50 for bicalutamide
Cc1ccc(N2C(=S)N(c3ccc(C#N)c(I)c3)C(=O)C2(C)C)cc1 [NC63],activity remarks in the ranking,[8],good activity
CNC(=O)c1ccc(N2C(=S)N(c3ccc(C#N)c(C(F)(F)F)c3)C(=O)C23CCC3)cc1 [NC77],luciferase activity in LNCaP-AR cells,"AR [7]; 125 nM to 1000 nM, FIG. 3",acted to reduce luciferase activity
same,"rank by relative luciferase activity, most active to least active","AR [7]; 500 nM, FIG. 3",NC67>NC68>NC66>NC69>NC77=NC53>bicalutamide
same,luciferase activity (comparison),LIAR cell line,less than the luciferase activity upon exposure to NC98
Cc1ccc(N2C(=S)N(c3ccc(C#N)c(Cl)c3)C(=O)C2(C)C)cc1 [NC107],activity remarks in the ranking,[8],very poor activity
"C[C@]1(O)CC[C@H]2[C@@H]3CCC4=CC(=O)CCC4=C3C=C[C@@]21C [R1881, methyltrienolone, reference compound]",induction of secreted PSA level,AR [2],strongly induced
same,androgen receptor nuclear translocation,androgen receptor,nuclear translocation of the androgen receptor occurred
